# Values joined by “and” are separate entries in the source; they are usually repeats but may differ in a detail not shown here. Identical values can stand only once. Like-named read-outs stand apart in the source and are kept apart here.
# Experiments:
# Bgp [1] = target: T1, Bgp (Borreliella burgdorferi, UniProt Q9F952); parameters: method as in Cornell et al., 2020 [18]; settings: reported previously, ref Cornell et al., 2020 [18], read-out: Km (Michaelis constant); cited from earlier work
# Pfs [2] = target: T2, Pfs (Borreliella burgdorferi, UniProt O50162); settings: reported previously, ref Cornell et al., 2020 [18], read-out: Km (Michaelis constant); cited from earlier work
# MtnN [3] = target: T3, MtnN (Borreliella burgdorferi, UniProt O50860); settings: reported previously, ref Cornell et al., 2020 [18], read-out: Km (Michaelis constant); cited from earlier work
# Bgp [4] = target: T1, Bgp; test: MTAN spectrophotometric activity assay (specific activity, Km); format: biochemical, Borrelia burgdorferi; settings: for Specific Activity: pH 7, 1 U = 1 µmol MTA hydrolyzed per minute; for % Max Specific Activity: relative to MTA as a substrate
# Protocol: (§1) Recombinant MTANs were expressed and purified as previously described. Briefly, overnight 10 mL cultures of recombinant E. coli BL21(DE3) pLysS cells containing engineered pET30a expression plasmids for Bgp, MtnN or Pfs were grown at 37 °C with shaking (150 rpm) in LB broth supplemented with 50 µg/mL kanamycin and 0.5% glucose. The culture was diluted 1:50 in fresh medium and incubated at 37 °C with shaking (150 rpm) until the absorbance (600 nm) reached 0.4–0.6. Protein expression was induced with the addition of isopropyl β-D-1-thiogalactopyranoside (IPTG) to a final concentration of 1 mM and continued overnight incubation with shaking at 30 °C. Cells were harvested by centrifugation (10,000× g/15 min), and the pellet was washed once with ice-cold lysis buffer (50 mM sodium phosphate, pH = 8.0, 300 mM NaCl, 10 mM imidazole, 2mM β mercaptoethanol). Harvested cell pellets were resuspended in 10 mL fresh lysis buffer and lysed by sonication on ice using a Misonix Sonicator 300 (power setting 7, pulse 30 s, 1 min cooling with total sonication for 2.5 min). The cell lysates were centrifuged at 10,000× g for 15 min at 4 °C to remove debris, and the lysate was further filtered through a […] syringe filter to obtain a clear extract. Recombinant N-terminal hexahistidine tagged proteins were purified from the lysate using HisPur™ affinity columns (Thermo Scientific) according to the manufacturer’s specifications, and specifically eluted with 250 mM imidazole containing buffer (pH = 7). Eluted materials were analyzed by SDS-PAGE and Coomassie blue staining and found to be >95% homogeneous. Enzyme concentrations were determined using UV scans on a Cary100 spectrophotometer (Agilent) to determine the absorbance at 280 nm and applying extinction coefficients (0.1%) of 0.594 (Bgp), 0.637 (MtnN), and 0.404 (Pfs). Enzyme stocks (1 mg/mL) were prepared in 20% glycerol and stored at −80 °C.
# (§2) Enzyme specific activities were determined using previously reported optimal pH conditions (50 mM sodium phosphate, pH = 7, for Bgp, MtnN; 50 mM sodium phosphate-citrate, pH = 5, for Pfs) and a spectrophotometric activity assay that measures the decrease in UV absorbance at 275 nm that occurs when MTA is cleaved to 5-methylthioribose and adenine (ε275 = 1.6 mM^−1cm^−1). The extinction coefficients for cleavage of other nucleosides were experimentally validated and found to be the same for MSeA, FSBA, and IADO (ε275 = 1.6 mM^−1cm^−1). Due to the added UV absorbance imparted by the 5′ purine group found in PurTA, the enzyme reactions were followed spectrophotometrically at 260 nm using the experimentally determined extinction coefficient of ε260 = 5.6 mM^−1cm^−1. Enzyme specific activities for MTA were generally 1–2 U/mg (1 U = µmol MTA hydrolyzed/min). The enzyme specific activities for other nucleosides were determined and reported in U/mg and as the % max specific activity (relative to MTA at 100%).
# (§3) Kinetic constants have been previously reported for MTA [18]. As MSeA was also an efficient substrate for the B. burgdorferi nucleosidases, kinetic constants were determined using the activity assay described above, varying the nucleoside concentrations from 1 to 20 µM, and fitting the data on substrate-velocity plots to the Michaelis–Menten equation using GraphPad Prism (version 6):(1) Vo=Vmax[S]/Km+[S]
# Pfs [5] = target: T2, Pfs; test: as above; format: biochemical, Borrelia burgdorferi; settings: for Specific Activity: pH 5, 1 U = 1 µmol MTA hydrolyzed per minute; for % Max Specific Activity: relative to MTA as a substrate
# Protocol: as §1, §2, §3
# MtnN [6] = target: T3, MtnN; test: as above; format: biochemical, Borrelia burgdorferi; settings: for Specific Activity: pH 7, 1 U = 1 µmol MTA hydrolyzed per minute; for % Max Specific Activity: relative to MTA as a substrate
# Protocol: as §1, §2, §3
# B. burgdorferi N40 [7] = test: Subculture without inhibitor after 7 days of treatment: bacteriostatic versus bactericidal; format: cell-based, Borrelia burgdorferi; settings: for Inhibitor Activity: 7 days of treatment, then subculture
# Protocol: After 7 days of treatment, a 5 µL aliquot from each treatment tube (and untreated control) was added to 1 mL of BSKII-RS medium to allow any remaining viable spirochetes in the sample to grow. After incubation for 7–21 days at 33 °C, the survival of the spirochetes was determined using dark-field microscopy to observe motility and by employing bioluminescence measurements to assess vitality of the recovered culture.
# To further differentiate between bacteriostatic versus bactericidal activities of MTAN inhibitors, we subcultured drug treated spirochetes in the absence of inhibitors to recover any live B. burgdorferi remaining after seven days of inhibitor treatment (summarized in Table 4). If non-motile spirochetes from treated cultures were able to grow back, the inhibitor was determined to have a bacteriostatic effect at the selected concentration. […] Spirochete survival was determined by both dark-field microscopy and bioluminescence measurements. Microscopic examination allowed assessment of motility of the spirochetes whereas bioluminescence assays assessed recovery and viability of B. burgdorferi cells. […] By comparison, a reduction in bioluminescence compared to the untreated control was observed after treatment with dEt-ImmA at a 0.4 µM or greater concentration. […] After seven days of treatment, live spirochetes were only recovered when concentrations of ≤0.4 µM were used for dEt-ImmA and IADO.
# E. coli MTAN = system: E. coli MTAN; parameters: method as in PMID 8941345; settings: radioactive enzyme assay; cited from earlier work
# [8] = system: Borrelia MTANs (Bgp, MtnN, Pfs); test: MTAN activity/kinetics, across the nucleosidases; format: biochemical
# Protocol: as §2, §3
# For the other compounds, inhibition constants (Ki’s) were determined as previously described, using an MTA concentration of 100 µM and varying the inhibitor concentration from 0 to 100 µM. The inhibited velocity (Vo’) and uninhibited velocity (Vo) values were determined, and the ratio of Vo’/Vo plotted as a function of inhibitor concentration. Ki values were calculated from these plots by fitting the data to the equation for competitive inhibition using GraphPad Prism:(2) Vo^′/Vo=Km+[S]/Km+[S]+(Km[I]/Ki)
# [9] = system: B. burgdorferi strain N40; test: microbe, parasite or virus in culture; format: cell-based, Borrelia burgdorferi; settings: 24 h treatment; calculated from graphs
# Protocol: B. burgdorferi N40 strain carrying a firefly luciferase gene (Bbluc), which is a derivative of the N40D10/E9 clone, was used in this study and is labeled as N40 throughout. N40 was cultured at 33 °C in Barbour-Stoenner-Kelly-II (BSK-II) medium supplemented with 6% rabbit serum (BSKII-RS). Bacterial counts were determined under 400× magnification using a hemocytometer and a dark field microscope.
# The luciferase expressing B. burgdorferi N40 strain was grown to a density of ~10^8 spirochetes/mL and divided into two aliquots. One aliquot was incubated at 60 °C for 30 min to kill the spirochetes. […] The culture was mixed with the substrate by shaking in the dark, incubated at 37 °C for 5 min in a Spectramax M2 microplate reader (Molecular Devices, San Jose, CA, USA) and the bioluminescence measured. […]
# Nucleosides and nucleoside analogs were prepared as sterile 1 mM stock solutions in distilled water (MSeA, IADO, FSBA, and dEt-ImmA) or in DMSO (PurTA). […] Photon emission due to luciferase activity was measured at three time points, after: (a) 24 h, (b) 72 h, and (c) 7 days of treatments to observe the effect of inhibitors on B. burgdorferi culture. At the end of each time point, bioluminescence was measured as described above. […]
# B. burgdorferi N40 [10] = test: Dark-field microscopy of treated cultures (motility); format: cell-based, Borrelia burgdorferi; settings: 24 h treatment
# Protocol: The infectious N40 B. burgdorferi culture was treated with ten 2-fold serial dilutions of ampicillin overnight. Stocks of ampicillin at 200 µg/mL to 0.385 µg/mL concentrations were used to prepare different dilutions for treatment (final 10 to 0.0195 µg/well). The bioluminescence standard curve (Figure 3) was used to calculate the percentage of physiologically compromised B. burgdorferi after treatment with different ampicillin concentration for 24 h. Ampicillin treatment affected the viability of the spirochetes (Figure 4A). […] A prolonged incubation could increase killing by ampicillin at lower doses of drug. In addition to bioluminescence, the cultures were also observed under dark-field microscopy to examine viability.
# Pfs [11] = target: T2, Pfs; parameters: method as in Cornell et al., 2020 [18]; settings: reported previously, ref Cornell et al., 2020 [18], cited from earlier work
# Bgp [12] = target: T1, Bgp; parameters: method as in Cornell et al., 2020 [18]; settings: reported previously, ref Cornell et al., 2020 [18], cited from earlier work
# MtnN [13] = target: T3, MtnN; parameters: method as in Cornell et al., 2020 [18]; settings: reported previously, ref Cornell et al., 2020 [18], cited from earlier work
# [14] = nucleoside 1 to 20 µM, read-out: Km (Michaelis constant)
# [15] = read-out: Ki (inhibition constant)
# T3 sequence (O50860 entry or part of it): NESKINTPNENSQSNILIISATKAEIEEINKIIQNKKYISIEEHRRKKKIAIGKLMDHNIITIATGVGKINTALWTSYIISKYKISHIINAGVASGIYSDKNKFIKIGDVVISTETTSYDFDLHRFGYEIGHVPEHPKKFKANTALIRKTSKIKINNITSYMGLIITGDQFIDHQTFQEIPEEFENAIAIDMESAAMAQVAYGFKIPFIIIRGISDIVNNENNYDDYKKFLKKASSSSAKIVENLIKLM
# T1 sequence (Q9F952 entry or part of it): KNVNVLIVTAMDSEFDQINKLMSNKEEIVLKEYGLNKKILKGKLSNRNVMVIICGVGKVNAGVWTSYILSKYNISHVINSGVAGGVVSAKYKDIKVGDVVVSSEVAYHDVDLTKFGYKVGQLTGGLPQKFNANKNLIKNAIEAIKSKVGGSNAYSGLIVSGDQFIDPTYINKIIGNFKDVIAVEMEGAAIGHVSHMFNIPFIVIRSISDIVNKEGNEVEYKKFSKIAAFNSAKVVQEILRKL
# T2 sequence (O50162 entry or part of it): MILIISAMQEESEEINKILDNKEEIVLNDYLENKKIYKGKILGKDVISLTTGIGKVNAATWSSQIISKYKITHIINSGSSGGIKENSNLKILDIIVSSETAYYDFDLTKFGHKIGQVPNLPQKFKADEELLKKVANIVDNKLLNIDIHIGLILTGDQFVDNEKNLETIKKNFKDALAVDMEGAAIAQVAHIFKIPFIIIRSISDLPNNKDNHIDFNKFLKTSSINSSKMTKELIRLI
molecule,measurement,setting,value
"5′-deoxy-5′-methylthioadenosine [MTA, reference compound]",Km,Bgp [1],0.49 µM
same,Km,Pfs [2],0.61 µM
same,Km,MtnN [3],9.09 µM
same,Specific Activity,Bgp [4],1.00 U/mg
same,% Max Specific Activity,Bgp [4],100%
same,Specific Activity,Pfs [5],1.70 U/mg
same,% Max Specific Activity,Pfs [5],100%
same,Specific Activity,MtnN [6],1.00 U/mg
same,% Max Specific Activity,MtnN [6],100%
5′-deoxy-5′-methylselenoadenosine [MSeA],Inhibitor Activity,B. burgdorferi N40 [7]; Dose: All doses (0.0032–10 µM),Bacteriostatic
same,recovery of spirochetes (bioluminescence comparable with untreated controls),"B. burgdorferi N40 [7]; all concentrations, 12 days of incubation of subcultured bacteria",fully recovered
same,IC50,E. coli MTAN,~4000 nM
same,Km,Bgp [4]; [14],1.62 µM
same,Specific Activity,Bgp [4],1.79 U/mg
same,% Max Specific Activity,Bgp [4],179%
same,Km,Pfs [5]; [14],2.12 µM
same,Specific Activity,Pfs [5],0.27 U/mg
same,% Max Specific Activity,Pfs [5],16%
same,Km,MtnN [6]; [14],1.5 µM
same,Specific Activity,MtnN [6],1.50 U/mg
same,% Max Specific Activity,MtnN [6],150%
same,specific activities higher than MTA,[8]; Bgp and MtnN,50–79%
same,Km,[8]; range over all three nucleosidases,1.5 to 2.1 µM and 1.5 to 2 µM
"CC1(C)S[C@@H]2[C@H](NC(=O)[C@H](N)c3ccccc3)C(=O)N2[C@H]1C(=O)O [ampicillin, reference compound]",IC50 (percent of physiologically compromised B. burgdorferi),[9],~ 0.31 µg/µL of culture
same,concentration at which majority of the spirochetes were non-motile with stripping of the outer membrane,B. burgdorferi N40 [10],≥ 0.625 µg/well
"CCC[C@H]1N[C@@H](c2c[nH]c3c(N)ncnc23)[C@H](O)[C@@H]1O [dEt-ImmA, 5′-deoxy-5′-ethyl-immucillin A]",recovery of live spirochetes,"B. burgdorferi N40 [7]; 2 µM and 10 µM, 21 days of subculture in media lacking MTAN inhibitors",no live spirochetes were recovered
same,Inhibitor Activity,"B. burgdorferi N40 [7]; Dose: 2 µM, 10 µM",Bactericidal
same,concentration giving a reduction in bioluminescence compared to the untreated control,B. burgdorferi N40 [7]; after 12 days of incubation of subcultured bacteria,≥ 0.4 µM
same,concentrations at which live spirochetes were recovered,B. burgdorferi N40 [7]; after seven days of treatment,≤ 0.4 µM
same,concentrations that exert bactericidal activity,"B. burgdorferi N40 [7]; after seven days of treatment, bacteriostatic at lower concentrations",≥ 1 µM
same,Ki,Pfs [11]; [15],10.5 nM
same,Ki’ (delayed onset inhibition constant),Pfs [11],0.53 ± 0.15 nM
same,Ki,Bgp [12]; [15],2.48 nM
same,Ki’ (delayed onset inhibition constant),Bgp [12],0.35 ± 0.02 nM
same,Ki,MtnN [13]; [15],1.48 nM
same,Ki’ (delayed onset inhibition constant),MtnN [13],0.58 ± 0.05 nM

# Source: article PMC7557402, “Evaluation of Nucleoside Analogs as Antimicrobials Targeting Unique Enzymes in Borrelia burgdorferi” (Pathogens, 2020)
